Test results from patent US20250381204A1, “A CANNABINOID MIXTURE WITH TERPENES FOR THE TREATMENT OF ANXIETY” (priority 2022, published 2025).
Read-outs that look alike come from different tables or passages of the source.

What was measured:
Fish = assay: Tank diving experiments (Example 8); type: in vivo
Protocol: Fish were exposed to drug, either pure CBD, CBD containing terpenes, or CBD plus CBG, in a litre of water for 30 min prior to being transferred to a novel tank containing fresh fish water in the absence of drug using a net and their behaviour recorded over a 6 min period using a camera mounted to one side. The vertical position of the fish in the tank can reliably be used as a proxy for an individual's anxiety. For example, the less time a fish spends on the bottom of the tank the less anxious. The response variables were number of visits to the top half of the tank, distance from the bottom of the tank, and proportion of time spent in the bottom third of the tank. Time spent on the bottom, distance travelled and number of top half visits determining using Ethovision software (Noldus). Water was changed, tanks and fish nets cleaned between each fish.
The anxiolytic concentration of CBD was first assessed by treating the fish with 0-15 mg/L CBD.
The ratio of CBD minus terpenes:CBD plus terpenes tested was 2:0, 1.5:0.5, 1:1, 0.5:1.5 and 0:2.

5 dpf zebrafish larvae = type: in vivo, Zebrafish (Danio rerio)
Protocol: Fish were bred and reared in the aquarium facility at Queen Mary University of London, licenced by the UK Home Office. Zebrafish (Danio rerio) adults from the Tuebingen wild type (TUWT) line were kept in glass breeding tanks in fish water that contain sodium bicarbonate (0.9 mM), calcium sulphate (0.05 mM) and marine salts (Sigma, Poole, UK; 0.018 g/l). Fish were maintained on a constant 14 h light: 10 h dark cycle at 28° C. They were fed 2 times a day with Zmsystems® ZM-000 high protein food particle (Tecniplast® UK. London) from 5 dpf-10 dpf, ZM-100 and paramecium from 11 dpf-14 dpf, and, ZM-200 and brineshrimp from 14 dpf-30 dpf. At one month of age, animals were transferred into the aquaria where they were fed Zmsystems® flake food and brineshrimp.
After incubation the 48-well plate was placed in a DanioVision Observation Chamber (Noldus) and the larvae were subjected to a forced dark/light transition assay while still in the compound solution. The assay consisted of a 10 min baseline period in the dark, followed by a 10 min light challenge, followed by a 15 min dark period. DanioVision Observation Chamber controlled the lighting and recorded the assay with an infrared camera (resolution, 30 frames per second (fps)). Footage obtained was processed by EthoVision XT NUMBER (Noldus). Mean distance moved was measured with 10 second intervals.
All statistical analyses were carried out in R version 3.2.2 (R core developer team reference). Data distributions and model fit were initially assessed visually. AIC values were used in model selection. Due to difference in variance between groups we fitted a linear mixed model (LMM) in the gls package (ref).
It was first assessed whether the different compounds and concentrations were associated with differences in locomotion after 30 min exposure. We subsetted the last min in the baseline and fitted an LME with mean distance moved as the response variable, compound as the fixed effect, and individual as the random effect, with a variance structure for compound.
The light challenge and dark phase were subsetted to assess if different compounds and concentrations were associated with different patterns of movement. In the light challenge the increase of movement over time was considered recovery. In the dark phase decrease of movement was considered recovery. We fitted an LME with mean distance moved (in 10 second time bins) as the response variable, the interaction between time and concentration as a fixed effect, individual as the random effect and introduced a variant structure to account for the heterogeneity in variance between drugs.

larvae = assay: Forced light/dark transition assay screening hemp extracts, diazepam and caffeine (Example 5); type: in vivo, zebrafish; settings: for response when the light is switched on (from trace): whole duration of the assay
Protocol: Our forced light/dark transition protocol was as follows. First, there was 10 minutes of total darkness (which we refer to as the baseline period; compounds were introduced at the beginning of the baseline period, and 10 minutes were allotted to allow for drug absorption and acclimation). Next, there was a period of five minutes of light exposure followed by five minutes of dark exposure, repeated three times. Finally, there was an additional five minutes of dark exposure.
A variety of statistical techniques were used to address our hypotheses about the potential anxiolytic and anxiogenic effects of four compounds. In outline: • 1) Overall models were carried out using linear mixed-effect models • 2) Deliberate pairwise comparisons between controls and dosages of interest were carried out using appropriate two-sample comparison tests
All statistical analyses were carried out in R version 3.2.2 (R core developer team). Overall models were linear mixed-effects models (LMMs), and were fitted using the Ime4 package (Bates, Machler, Bolker, & Walker, 2015). Data were transformed as indicated to fit the assumptions of LMMs. Posthoc tests were performed using the multcomp package in R. Data distributions were initially assessed visually and model diagnostics were subsequently checked to assure appropriate fits.
Comparisons between patterns of activity during the light phases (i.e. rate of recovery during light phases, which indicates a possible anxiolytic or anxiogenic effect) were performed by analysing the slope of the linear regression function of individual mean distance vs time during light phases.
For pairwise comparisons on specific concentrations, nonparametric tests are used as indicated on non-normally distributed data.

5 dpf larvae = assay: Forced light/dark transition test, 10 min dark-(5 min light-5 min dark)*3-5 min dark (Example 4); type: in vivo, zebrafish
Protocol: • All the tests were done with 5 dpf larvae unless stated otherwise. • A forced light/dark transition test was used. (10 min dark-(5 min light-5 min dark)*3-5 min dark) • The dose response curve was made as follows; • The locomotor activity of the larvae at the last min of acclimation (min 9-10 in the assay), was taken • The mean for each larvae over this period of time was calculated • Then the mean of each condition was calculated • The means plotted are relative to the control, control was set at 1

[1] = 2 mg/L CBD in combination with 0-5 mg/L CBG
[2] = 1% ethanol, 80 mg/L caffeine, 250 μg/L fluoxetine, 100 mM NaCl

## C=C(C)[C@@H]1CCC(C)=C[C@H]1c1c(O)cc(CCCCC)cc1O [CBD, Cannabidiol]
Fish; 0-15 mg/L CBD, 30 min exposure, 6 min recording
  anxiolytic effect in tank diving (top half visits, distance from bottom, time in bottom third): anxiolytic effect

## CCCCCc1cc(O)c(C/C=C(\C)CCC=C(C)C)c(O)c1 [CBG, Cannabigerol]
Fish; [1]
  anxiolytic / anxiogenic effect of CBG in the mixture: displays no anxiolytic effect, but may potentially have an undesirable anxiogenic effect
  distance from the bottom of the tank: no significant change in the distance from the bottom of the tank with increasing CBG concentration
  frequency of visits to the top half of the tank: decreased with increasing concentration of CBG
  proportion of time spent in the bottom third of the tank: spend a greater proportion of time in the bottom third of the tank

## CNCCC(Oc1ccc(C(F)(F)F)cc1)c1ccccc1 (centres unmarked) [Fluoxetine, fluoxetine]
5 dpf zebrafish larvae; [2]
  basal locomotion (last minute of baseline) vs DMSO: move significantly less than DMSO
  movement in the beginning of the dark period / in the dark phase vs DMSO: move less overall in the dark phase
  rate of recovery in the dark phase (decrease of movement over time) vs DMSO: recover less over time
  rate of recovery in the light challenge (increase of movement over time) vs DMSO: recover less over time

## [Cl-].[Na+] [NaCl]
5 dpf zebrafish larvae; zebrafish, in vivo
  basal locomotion (last minute of baseline) vs DMSO: no difference in locomotion
  freezing in the light challenge vs DMSO: froze less
  movement in the beginning of the dark period / in the dark phase vs DMSO: no difference in movement in the beginning of the dark period
  rate of recovery in the dark phase (decrease of movement over time) vs DMSO: recovers slower than DMSO
  rate of recovery in the light challenge (increase of movement over time) vs DMSO: did not recover differently from DMSO

## Cn1c(=O)c2c(ncn2C)n(C)c1=O [caffeine]
larvae; after ~10 minutes of exposure
  dosage with significantly lower locomotion than control larvae (Tukey posthoc): 80 mg/L
larvae; last minute of baseline, dark
  dosage as predictor of mean distance moved after ~10 minutes of exposure (LMM): Dosage was a significant predictor of mean distance moved after 10 minutes of exposure
larvae; light phases
  dosages significantly different from the control during light phases (Tukey posthoc pairwise comparison): ≥ 40 mg/L
  time×dosage and dosage×light phase number as predictors of mean distance moved during light phases (LMM): Both fixed effects were significant predictors of mean distance moved
larvae
  response when the light is switched on (from trace): much the same for all doses
5 dpf zebrafish larvae; [2]
  basal locomotion (last minute of baseline) vs DMSO: move significantly less than DMSO
  freezing in the light challenge vs DMSO: froze less in the beginning of the light challenge
  movement in the beginning of the dark period / in the dark phase vs DMSO: move less overall in the dark phase
  rate of recovery in the dark phase (decrease of movement over time) vs DMSO: recover less over time
  rate of recovery in the light challenge (increase of movement over time) vs DMSO: negative impact of locomotion over time

## CN1C(=O)CN=C(c2ccccc2)c2cc(Cl)ccc21 [diazepam]
larvae; 0.25 μM
  rate of recovery (slope) during light phases vs DMSO control: significantly higher slope, or rate of recovery
larvae; Experiment 1 (diazepam), all dosages
  rate of recovery (slope of linear regression) during the first light phase (Kruskal-Wallis): faster rate of recovery
larvae; Experiment 2 (diazepam), 2.5 μM, minute 10 to 20
  mean distance moved over time in the light challenge vs control: increases movement over time faster than the control in the light challenge
larvae; Experiment 2 (diazepam), 2.5 μM, minute 20 to 30
  mean distance moved over time in the dark period vs control: decreases movement over time faster than the control in the dark period
larvae; Experiment 2 (diazepam), minute 9 to 10
  mean distance moved in the baseline period (LMM): no significant difference found in mean distance moved in the baseline period
larvae; after ~10 minutes of exposure, Experiment 1 (diazepam)
  dosages with significantly lower distance moved than the control fish (Tukey post hoc): ≥ 0.25 µM
larvae; light phases
  time×dosage and dosage×light phase number as predictors of mean distance moved during light phases (LMM): Both fixed effects were significant predictors of mean distance moved
larvae
  response when the light is switched on (from trace): stops the fish moving to the bottom of the tank
larvae; zebrafish, in vivo
  anxiolytic effect (overall conclusion): anxiolytic effect
5 dpf larvae; 5 dpf larvae, dose response
  effect on locomotor: impairment diazepam has on locomotor

## CCO [ethanol]
5 dpf zebrafish larvae; [2]
  rate of recovery in the dark phase (decrease of movement over time) vs DMSO: recovers faster
  rate of recovery in the light challenge (increase of movement over time) vs DMSO: negative impact of locomotion over time
5 dpf zebrafish larvae; zebrafish, in vivo
  basal locomotion (last minute of baseline) vs DMSO: moved significantly more than DMSO
  freezing in the light challenge vs DMSO: froze less in the beginning of the light challenge
  movement in the beginning of the dark period / in the dark phase vs DMSO: moves more at the beginning of the dark period compared to DMSO
5 dpf larvae; 0.25% ethanol
  behaviour in the acclimation period: start moving erratically
5 dpf larvae; 0.5% ethanol, most groups freeze
  behaviour when turning on the light: starts moving more than before
